Measurements from the supplement of paper PMC13380429.
± gives the standard deviation of the averaged measurements.

Tests used:
Conditions in all cases: 72 h
U2OS [1] = assay: cell viability relative to DMSO; higher = less toxic
Calu-3 [2] = assay: as above
Caco-2 [3] = assay: as above
HepG2 [4] = assay: as above
Vero E6 [5] = assay: as above
U2OS [6] = assay: drug sensitivity score (DSS) for viability; higher = more toxic; extreme values may be limits of the assay
Calu-3 [7] = assay: as above
Caco-2 [8] = assay: as above
HepG2 [9] = assay: as above
Vero E6 [10] = assay: as above
U2OS [11] = assay: relative viability EC50 (midpoint between 100% and the lowest measured viability); higher = less toxic
Calu-3 [12] = assay: as above
Caco-2 [13] = assay: as above
HepG2 [14] = assay: as above
Vero E6 [15] = assay: as above

| Compound | cell viability (U2OS [1]; 1 nM) [%] | cell viability (U2OS [1]; 10 nM) [%] | cell viability (U2OS [1]; 100 nM) [%] | cell viability (U2OS [1]; 1000 nM) [%] | cell viability (U2OS [1]; 10000 nM) [%] | cell viability (Calu-3 [2]; 1 nM) [%] | cell viability (Calu-3 [2]; 10 nM) [%] | cell viability (Calu-3 [2]; 100 nM) [%] | cell viability (Calu-3 [2]; 1000 nM) [%] | cell viability (Calu-3 [2]; 10000 nM) [%] | cell viability (Caco-2 [3]; 1 nM) [%] | cell viability (Caco-2 [3]; 10 nM) [%] | cell viability (Caco-2 [3]; 100 nM) [%] | cell viability (Caco-2 [3]; 1000 nM) [%] | cell viability (Caco-2 [3]; 10000 nM) [%] | cell viability (HepG2 [4]; 1 nM) [%] | cell viability (HepG2 [4]; 10 nM) [%] | cell viability (HepG2 [4]; 100 nM) [%] | cell viability (HepG2 [4]; 1000 nM) [%] | cell viability (HepG2 [4]; 10000 nM) [%] | cell viability (Vero E6 [5]; 1 nM) [%] | cell viability (Vero E6 [5]; 10 nM) [%] | cell viability (Vero E6 [5]; 100 nM) [%] | cell viability (Vero E6 [5]; 1000 nM) [%] | cell viability (Vero E6 [5]; 10000 nM) [%] | drug sensitivity score (U2OS [6]) | drug sensitivity score (Calu-3 [7]) | drug sensitivity score (Caco-2 [8]) | drug sensitivity score (HepG2 [9]) | drug sensitivity score (Vero E6 [10]) | relative viability EC50 (U2OS [11]) [µM] | relative viability EC50 (Calu-3 [12]) [µM] | relative viability EC50 (Caco-2 [13]) [µM] | relative viability EC50 (HepG2 [14]) [µM] | relative viability EC50 (Vero E6 [15]) [µM] |
| --- | --- | --- | --- | --- | --- | --- | --- | --- | --- | --- | --- | --- | --- | --- | --- | --- | --- | --- | --- | --- | --- | --- | --- | --- | --- | --- | --- | --- | --- | --- | --- | --- | --- | --- | --- |
| CC(=O)OCC(=O)[C@@]1(O)CC[C@H]2[C@@H]3CCC4=CC(=O)CC[C@]4(C)[C@@]3(F)[C@@H](O)C[C@@]21C [FLUDROCORTISONE ACETATE] | 98.1 | 101 | 95.8 | 94.7 | 93.1 | 97.7 | 94.4 | 93 | 85.1 | 104 | 102 | 102 | 99.5 | 92.8 | 101 | 104 | 95.9 | 104 | 87.5 | 95.3 | 97.7 | 99.8 | 96.5 | 96.5 | 97.7 | 0 | 0 | 0 | 0.6 | 0 | > 10 | > 10 | > 10 | > 10 | > 10 |
| COc1ccc(COc2ccc(Cc3cnc(N)nc3N)cc2OC)cc1 [GW-2580] | 99.2 | 99.3 | 94.3 | 103 | 92.2 | 110 | 102 | 97.2 | 102 | 99.7 | 98.2 | 97.6 | 95.7 | 102 | 91.2 | 113 | 108 | 108 | 99.5 | 108 | 95.3 | 97.9 | 100 | 98.3 | 96 | 0 | 0 | 0 | 0 | 0 | > 10 | > 10 | > 10 | > 10 | > 10 |
| N[C@H]1CCN(O)C1=O [HA-966-(S)-(-)] | 97.6 ± 2.7 | 96.8 ± 2 | 98.5 ± 3.2 | 96.9 ± 0.71 | 97.2 ± 3.2 | 104 ± 4.8 | 95.8 ± 4.6 | 99.6 ± 2.1 | 94.7 ± 7.3 | 97.6 ± 0.71 | 103 ± 1.2 | 86.4 ± 7.8 | 106 ± 5.9 | 96 ± 3.5 | 102 ± 5.2 | 93.2 | 107 | 100 | 104 | 106 | 96.8 ± 9.3 | 95.3 | 93.35 ± 0.35 | 97.6 ± 3.4 | 102 ± 4.7 | 0 | 0 | 0 | 0 | 0 | > 10 | > 10 | > 10 | > 10 | > 10 |
| NCCCCCNCC12CC3CC(CC(C3)C1)C2 [IEM1754] | 98.6 | 106 | 100 | 100 | 99 | 108 | 106 | 91 | 97.8 | 82.1 | 104 | 97.4 | 101 | 104 | 102 | 106 | 89.3 | 98.1 | 97.8 | 97.9 | 98.6 | 98.6 | 94.7 | 97.3 | 102 | 0 | 0.7 | 0 | 0 | 0 | > 10 | > 10 | > 10 | > 10 | > 10 |
| CC1(C)CN2C(CS/C(=N\C3CCCCC3)NC3CCCCC3)=CSC2=N1 [IT1t] | 97.1 | 95.8 | 102 | 97.5 | 88.8 | 96.4 | 116 | 100 | 89.7 | 75.4 | 91.6 | 87.6 | 99.5 | 94.8 | 82 | 96.7 | 102 | 96.7 | 102 | 88.8 | 94.5 | 95.7 | 92.1 | 99.4 | 96.9 | 0.1 | 2.2 | 0 | 0 | 0 | > 10 | > 10 | > 10 | > 10 | > 10 |
| COc1ccc2c3c([nH]c2c1)[C@H](CC(C)C)N1C(=O)[C@H](CCC(=O)OC(C)(C)C)NC(=O)[C@@H]1C3 [Ko143] | 98.7 | 101 | 98.1 | 100 | 94.1 | 89.8 | 100 | 97.7 | 98.6 | 97.9 | 95.7 | 99.6 | 91.8 | 91.4 | 93 | 101 | 86.3 | 92.5 | 85.6 | 97.9 | 99.3 | 96.7 | 101 | 93 | 97.7 | 0 | 0 | 0 | 0 | 0 | > 10 | > 10 | > 10 | > 10 | > 10 |
